# Results reported in publication PMC12801355, “Peptide Amphiphiles Hitchhike on Endogenous Biomolecules for Enhanced Cancer Imaging and Therapy” (Advanced Materials (Deerfield Beach, Fla.), 2025).
# Where a SMILES comes first, the peptide text is derived from it. The star is where a group is joined. Palmitoyl = CCCCCCCCCCCCCCCC(=O)*
# Key:
# human plasma proteins [1] = molecular target: T1, human plasma proteins (Homo sapiens, UniProt P06727); test: Mass spectrometry of proteins pulled down with biotinylated SA‐E (SA‐Eb) from human plasma; assay type: binding
# T1 construct: incubated with 50% pooled human plasma at 37 °C for 2 h; from tissue; host or cells: pooled human plasma (50%)
# T1 sequence (P06727 21-396): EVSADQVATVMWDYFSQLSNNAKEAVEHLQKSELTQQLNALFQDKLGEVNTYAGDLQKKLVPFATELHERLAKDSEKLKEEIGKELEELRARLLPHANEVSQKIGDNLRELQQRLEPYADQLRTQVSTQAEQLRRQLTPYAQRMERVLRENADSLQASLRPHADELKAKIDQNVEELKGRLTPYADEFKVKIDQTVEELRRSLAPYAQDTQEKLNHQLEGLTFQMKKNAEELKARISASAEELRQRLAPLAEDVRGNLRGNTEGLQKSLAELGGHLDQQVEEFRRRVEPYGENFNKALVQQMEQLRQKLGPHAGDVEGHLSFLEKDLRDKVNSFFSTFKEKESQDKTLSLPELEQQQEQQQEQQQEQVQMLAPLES
# Protocol: (§1) Samples were prepared for mass spectrometry analysis via a pull‐down of a biotinylated version of the SA‐E probe (SA‐Eb, 100 µM) incubated with 50% pooled human plasma at 37 °C for 2 h. Before incubation with the SA‐Eb‐plasma mixture, magnetic streptavidin‐coated beads (Dynabeads MyOne Streptavidin T1, Invitrogen, 65601) were washed with PBS (10 mM, pH 7.4) then blocked with 1% casein equal to the total initial volume of beads for 15 min at room temperature. After blocking, beads were washed again with PBS. Beads were then combined with SA‐Eb‐plasma solution, 25 µL beads to 200 µL mixture. This mixture was then incubated at room temperature for 30 min. After incubation, the remaining solution was removed, and the beads were washed five times with PBS. Bound SA‐Eb was eluted from beads in 30 µL 0.5% Triton X‐100 solution. Magnetic beads were then removed, and the elution was collected for analysis. For plasma control, the incubation with SA‐Eb step was skipped, and 50% plasma in PBS was incubated with beads and washed and eluted using the same method as the SA‐Eb‐plasma solution. The elution solutions were then analyzed by the Proteomics Shared Resource facility at Oregon Health & Science University (See Supporting Information for details).
# (§2) Sample Preparation. Eluted plasma samples were dried down and stored at -80°C. Samples were thawed at room temperature for 10 min, and 75 µL of SDS protein extraction buffer (5% SDS, 50 mM […]; TEAB) was added to each sample. Samples were shaken in a Thermo mixer for 10 minutes at room temperature and centrifuged at 10,000 g for 5 min. Each sample was transferred from a 0.5 mL tube to a 1.5 mL LoBind centrifuge tube. Samples were reduced by adding 3.4 µL of 0.5 M dithiothreitol and incubated at 95 °C for 10 min. Samples were alkylated by the addition of 6.8 µL of 0.5 M iodoacetamide and were incubated at room temperature for 30 min in the dark. Samples were then acidified by the addition of 8.52 µL of 12% phosphoric acid, and 562 µL of SDS protein binding buffer (90% methanol, 100 mM TEAB, pH 7.51). Samples were transferred 165 µL at a time to S-trap micro columns (Protifi, Farmingdale, NY) and inserted into 1.5 mL of polypropylene tubes. Samples were centrifuged at 4,000 g for 3 min between each addition of the sample. S-trap columns were washed 6 times using 150 µL of 90% methanol containing 100 mM of TEAB followed by centrifugation at 4,000g for 3 min between each wash step. S-trap columns containing the bound sample proteins were transferred to 1.5 mL LoBind centrifuge tubes and 40 µL of 80 ng/µL sequencing grade modified trypsin (Pierce TM Trypsin Protease MS-Grade, XG348166) in 50 mM TEAB was added. S-trap columns were loosely capped, and digestion was performed at 37°C overnight in a humidified chamber.
# (§3) After completion of digestion, peptides were eluted by sequential addition of 40 µL of TEAB, 40 µL of 0.2% aqueous formic acid, and 40 µl of 50% acetonitrile, 0.2% formic acid, with centrifugation at 4,000 g for 4 min between each addition of elution buffer. The elution fractions were combined and then dried by vacuum centrifugation. Samples were reconstituted by adding 20 µL of 5% formic acid, shaking at 37 °C, and spinning at 15,000 g for 5 min. The supernatant of each sample was transferred to an auto-sample vial.
# (§4) Data analysis. Mass spectrometry data from all samples were processed using COMET/PAWS against Uniprot_Human_database. Comet (v. 2016.01, rev. 3)^8 was used to search MS2 Spectra against a January 2023 version of canonical FASTA protein database containing human uniprot sequences, and concatenated sequence-reversed entries to estimate error thresholds and 179 common contaminant sequences and their reversed forms. The database processing was performed using python scripts available at https://github.com/pwilmart/fasta_utilities.git and Comet results were processed using the PAW pipeline2 from https://github.com/pwilmart/PAW_pipeline.git.
# human plasma proteins [2] = molecular target: T2, human plasma proteins (Homo sapiens, UniProt P02768); test: as above; assay type: binding; conditions: for Total Counts, Albumin: pull‐down with biotinylated SA-E
# T2 construct: incubated with 50% pooled human plasma at 37 °C for 2 h; from tissue; host or cells: pooled human plasma (50%)
# Protocol: as §1, §2, §3, §4
# human plasma proteins [3] = molecular target: T3, human plasma proteins (Homo sapiens, UniProt P08519); test: as above; assay type: binding
# T3 construct: incubated with 50% pooled human plasma at 37 °C for 2 h; from tissue; host or cells: pooled human plasma (50%)
# Protocol: as §1, §2, §3, §4
# human plasma proteins [4] = molecular target: T4, human plasma proteins (Homo sapiens, UniProt P02649); test: as above; assay type: binding
# T4 construct: incubated with 50% pooled human plasma at 37 °C for 2 h; from tissue; host or cells: pooled human plasma (50%)
# Protocol: as §1, §2, §3, §4
# [5] = Blood circulation in mice; assay type: in vivo, mouse; conditions: wild type mice, 50 nmol IV
# Protocol: For blood circulation experiments, Balb/c mice were injected with 100 µL of ICG conjugated PAs or No‐SA, or free ICG (0.5 mM). Then, blood was drawn via the saphenous vein or retro‐orbitally at different time points (immediately after injection to 1 day). […] Blood from wild type mice was collected to prepare calibration curves for each probe. To each 18 µL aliquot of blood, 2 µL of probe stock solution (0.5 mM) was added and incubated at 37 °C for 1 h. The spiked samples were then serially diluted in blood between 50 and 0.1 µM. For fluorescence measurement, 2 µL of each diluted sample was further diluted into 98 µL of PBS, and ICG fluorescence was measured using a TECAN plate reader.
# T3 sequence (P08519 20-2040): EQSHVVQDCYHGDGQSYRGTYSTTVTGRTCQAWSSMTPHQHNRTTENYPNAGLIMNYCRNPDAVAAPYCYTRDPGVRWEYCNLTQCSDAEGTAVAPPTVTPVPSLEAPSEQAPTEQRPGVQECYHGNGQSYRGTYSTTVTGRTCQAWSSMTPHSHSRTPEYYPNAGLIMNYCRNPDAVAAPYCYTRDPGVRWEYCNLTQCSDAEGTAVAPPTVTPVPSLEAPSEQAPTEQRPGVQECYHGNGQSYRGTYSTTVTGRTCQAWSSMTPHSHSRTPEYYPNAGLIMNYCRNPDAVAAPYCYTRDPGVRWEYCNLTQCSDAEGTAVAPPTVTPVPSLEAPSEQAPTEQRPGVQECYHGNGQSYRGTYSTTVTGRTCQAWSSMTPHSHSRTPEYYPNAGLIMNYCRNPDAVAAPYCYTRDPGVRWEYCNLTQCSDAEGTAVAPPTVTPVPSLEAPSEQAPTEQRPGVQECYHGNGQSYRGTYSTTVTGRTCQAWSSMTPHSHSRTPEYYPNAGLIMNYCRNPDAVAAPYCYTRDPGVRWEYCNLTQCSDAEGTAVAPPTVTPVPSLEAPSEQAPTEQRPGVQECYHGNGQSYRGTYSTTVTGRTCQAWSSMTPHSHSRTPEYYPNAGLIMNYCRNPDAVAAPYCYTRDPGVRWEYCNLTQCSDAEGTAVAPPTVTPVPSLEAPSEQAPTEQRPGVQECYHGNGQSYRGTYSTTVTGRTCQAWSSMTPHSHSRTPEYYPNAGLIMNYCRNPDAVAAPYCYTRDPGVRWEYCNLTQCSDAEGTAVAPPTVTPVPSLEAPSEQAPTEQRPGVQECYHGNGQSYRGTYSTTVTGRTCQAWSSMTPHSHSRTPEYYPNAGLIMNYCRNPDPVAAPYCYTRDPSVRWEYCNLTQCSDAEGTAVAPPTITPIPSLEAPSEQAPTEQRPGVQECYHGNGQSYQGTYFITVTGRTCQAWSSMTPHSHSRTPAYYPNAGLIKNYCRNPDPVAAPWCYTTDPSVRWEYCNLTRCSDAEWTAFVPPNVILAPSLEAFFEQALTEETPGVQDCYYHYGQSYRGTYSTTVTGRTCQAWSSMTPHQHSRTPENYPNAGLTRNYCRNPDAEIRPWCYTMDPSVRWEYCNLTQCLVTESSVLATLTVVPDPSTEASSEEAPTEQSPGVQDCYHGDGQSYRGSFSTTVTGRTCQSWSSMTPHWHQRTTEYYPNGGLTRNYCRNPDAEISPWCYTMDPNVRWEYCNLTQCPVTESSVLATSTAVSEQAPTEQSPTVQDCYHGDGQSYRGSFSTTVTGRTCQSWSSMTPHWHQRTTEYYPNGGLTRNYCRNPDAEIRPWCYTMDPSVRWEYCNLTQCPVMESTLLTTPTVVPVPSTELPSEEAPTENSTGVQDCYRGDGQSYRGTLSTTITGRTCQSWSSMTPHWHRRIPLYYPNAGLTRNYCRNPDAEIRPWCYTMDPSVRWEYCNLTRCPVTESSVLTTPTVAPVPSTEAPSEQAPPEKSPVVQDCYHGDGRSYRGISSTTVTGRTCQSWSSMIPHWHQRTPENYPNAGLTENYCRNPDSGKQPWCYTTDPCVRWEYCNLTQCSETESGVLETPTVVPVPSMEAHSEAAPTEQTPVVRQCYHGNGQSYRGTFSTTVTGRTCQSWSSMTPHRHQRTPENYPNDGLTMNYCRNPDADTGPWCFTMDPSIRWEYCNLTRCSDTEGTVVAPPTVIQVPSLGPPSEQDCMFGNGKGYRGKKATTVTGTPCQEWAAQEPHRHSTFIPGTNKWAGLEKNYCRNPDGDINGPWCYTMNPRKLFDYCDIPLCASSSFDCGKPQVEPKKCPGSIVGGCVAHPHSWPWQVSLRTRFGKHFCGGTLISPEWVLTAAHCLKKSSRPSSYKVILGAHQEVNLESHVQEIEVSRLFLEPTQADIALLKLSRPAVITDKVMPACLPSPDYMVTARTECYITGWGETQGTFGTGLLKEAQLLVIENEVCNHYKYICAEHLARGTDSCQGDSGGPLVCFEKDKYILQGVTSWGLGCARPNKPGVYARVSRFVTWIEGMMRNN
# T4 sequence (P02649 19-317): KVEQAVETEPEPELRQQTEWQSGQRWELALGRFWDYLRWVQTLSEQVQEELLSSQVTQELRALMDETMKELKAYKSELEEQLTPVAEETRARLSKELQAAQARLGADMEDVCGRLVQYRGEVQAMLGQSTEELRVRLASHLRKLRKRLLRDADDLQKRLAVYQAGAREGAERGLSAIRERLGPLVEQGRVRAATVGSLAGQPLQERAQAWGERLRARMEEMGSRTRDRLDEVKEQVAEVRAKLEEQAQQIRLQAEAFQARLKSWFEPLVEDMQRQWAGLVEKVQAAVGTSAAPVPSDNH
# T2 sequence (P02768 25-609): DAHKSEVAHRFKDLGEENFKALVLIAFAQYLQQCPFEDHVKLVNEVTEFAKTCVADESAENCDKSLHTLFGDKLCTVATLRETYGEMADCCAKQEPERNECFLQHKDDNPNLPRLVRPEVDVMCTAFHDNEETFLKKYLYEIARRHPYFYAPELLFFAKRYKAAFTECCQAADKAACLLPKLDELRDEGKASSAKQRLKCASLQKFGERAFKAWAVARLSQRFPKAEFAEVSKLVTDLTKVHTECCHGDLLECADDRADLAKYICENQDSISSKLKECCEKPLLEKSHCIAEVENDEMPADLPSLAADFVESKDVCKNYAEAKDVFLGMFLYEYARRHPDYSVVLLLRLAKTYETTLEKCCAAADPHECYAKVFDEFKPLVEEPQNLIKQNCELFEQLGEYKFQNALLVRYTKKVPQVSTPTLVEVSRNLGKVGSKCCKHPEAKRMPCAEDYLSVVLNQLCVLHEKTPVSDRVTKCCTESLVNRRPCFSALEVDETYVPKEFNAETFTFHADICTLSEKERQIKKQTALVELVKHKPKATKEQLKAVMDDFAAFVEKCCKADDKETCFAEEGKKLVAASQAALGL
compound,measurement,setting,value
CCCCCCCCCCCCCCCC(=O)NCC(=O)NCC(=O)NCC(=O)N[C@@H](Cc1c[nH]cn1)C(=O)N[C@@H](C)C(=O)N[C@@H](C)C(=O)N[C@@H](CC(N)=O)C(=O)NCC(=O)N[C@@H](CCC(=O)O)C(=O)N[C@@H](CCC(=O)O)C(=O)N[C@@H](CS)C(=O)N[C@@H](CCC(=O)O)C(=O)O [SA‐E] (Palmitoyl-GGGHAANGEECE-OH),"Percentage, Apolipoprotein A-IV",human plasma proteins [1]; replicate 1,1.1%
same,"Total Counts, Apolipoprotein A-IV",human plasma proteins [1]; replicate 1,39
same,"Percentage, Apolipoprotein A-IV",human plasma proteins [1]; replicate 2,0.6%
same,"Total Counts, Apolipoprotein A-IV",human plasma proteins [1]; replicate 2,16
same,"Total Counts, Albumin",human plasma proteins [2]; replicate 1,1215
same,"Total Counts, Albumin",human plasma proteins [2]; replicate 2,923
same,"Percentage, Albumin",human plasma proteins [2]; replicate 1,34.0%
same,"Percentage, Albumin",human plasma proteins [2]; replicate 2,32.5%
same,"Percentage, Apolipoprotein(a)",human plasma proteins [3]; replicate 1,0.1%
same,"Total Counts, Apolipoprotein(a)",human plasma proteins [3]; replicate 1,4
same,"Percentage, Apolipoprotein(a)",human plasma proteins [3]; replicate 2,0.1%
same,"Total Counts, Apolipoprotein(a)",human plasma proteins [3]; replicate 2,3
same,"Percentage, Apolipoprotein E",human plasma proteins [4]; replicate 1,1.8%
same,"Total Counts, Apolipoprotein E",human plasma proteins [4]; replicate 1,66
same,"Percentage, Apolipoprotein E",human plasma proteins [4]; replicate 2,2.1%
same,"Total Counts, Apolipoprotein E",human plasma proteins [4]; replicate 2,59
same,AUC of blood circulation plot relative to SA‐K,[5],2.1 fold
